Several values for one entry are separate records, joined by “and”; a condition that tells them apart may be missing. Identical values can stand only once.

The first assay deals with T1, SARS-CoV-2 3CL^pro (Severe acute respiratory syndrome coronavirus 2, UniProt P0DTD1, Q3569A).
Settings: not given
Turning to AAVALX↓SAHHYAYR [P1-His], the “^app(kcat/KM)” value amounted to 222 M⁻¹ s⁻¹. As to AAVALQ↓XAHHYAYR [S], the “^app(kcat/KM)” value is listed as 1,528 M^−1s^−1. VALQ↓GAHRVALQ↓XAHYR [Leu]: the “cleavage at second (test) site with P1' X” value is listed as “minimal cleavage”. Regarding AAVALM↓SAHHYAYR [P1-Met], the “^app(kcat/KM)” value amounted to 37 M⁻¹ s⁻¹.

Still in this assay, the particulars now being: pH 6.9.
For the substance AAVALQ↓XAHHYAYR [I], the “^app(kcat/KM)” value is listed as “No cleavage”.

Take AAVALQ↓XAHHYAYR [listing 1 of 7 here]: the “^app(kcat/KM)” value is “No cleavage”. As to AAVALQ↓XAHHYAYR [listing 2 of 7 here], the “^app(kcat/KM)” value turned out to be 45.0 ± 0.6 M⁻¹ s⁻¹. On the same count and under the same terms, in the case of AAVALQ↓XAHHYAYR [D] it was “No cleavage”; in that of AAVALQ↓XAHHYAYR [S], 1,519.1 ± 6.2 M^−1s^−1. With AAVALQ↓XAHHYAYR [C], the “^app(kcat/KM)” value is listed as “No cleavage”. Still for that read-out and setting: in the case of AAVALQ↓XAHHYAYR [E] it was “No cleavage”.

With AAVALQ↓XAHHYAYR [listing 3 of 7 here], the “^app(kcat/KM)” value is given as “No cleavage”.

Regarding AAVALQ↓XAHHYAYR [listing 4 of 7 here], the “^app(kcat/KM)” value is listed as “No cleavage”.

For AAVALQ↓XAHHYAYR [N], the “^app(kcat/KM)” value amounted to 71.8 ± 3.2 M⁻¹ s⁻¹. In the case of AAVALQ↓XAHHYAYR [listing 5 of 7 here], the “^app(kcat/KM)” value is recorded as “No cleavage”.

As to AAVALQ↓XAHHYAYR [K], the “^app(kcat/KM)” value is listed as “No cleavage”. Take AAVALQ↓XAHHYAYR [M]: the “^app(kcat/KM)” value came to 65.8 ± 1.4 M⁻¹ s⁻¹. As to AAVALQ↓XAHHYAYR [G], the “^app(kcat/KM)” value is on record as 1,079.1 ± 12.6 M^−1s^−1. AAVALQ↓XAHHYAYR [listing 6 of 7 here]: the “^app(kcat/KM)” value is 1,522.0 ± 7.6 M^−1s^−1. On to AAVALQ↓XAHHYAYR [W], for which the “^app(kcat/KM)” value was “No cleavage”. For the substance AAVALQ↓XAHHYAYR [T], the “^app(kcat/KM)” value is listed as “No cleavage”. Regarding AAVALQ↓XAHHYAYR [listing 7 of 7 here], the “^app(kcat/KM)” value is “No cleavage”.

As for AAVALQ↓XAHHYAYR [P], the “^app(kcat/KM)” value was “No cleavage”.

The next assay concerns the target T1, SARS-CoV-2 3CL^pro. Particulars: pH 6.9.
With AAVALM↓SAHHYAYR [P1-Met], the “^app(kcat/KM)” value came out at 37 M⁻¹ s⁻¹.

The target of the next assay is T1, SARS-CoV-2 3CL^pro.
Settings: not given
This is another data set of the same source.
As to Mca-RVALQ↓XAHYK(Dnp)RR [QFS1-S1'], the kcat/KM is 13,696.8 M^−1·s^−1 and 13,696.8 ± 269. For the substance Mca-RVALQ↓XAHYK(Dnp)RR [QFS1-A1'], the kcat/KM was 13,131.0 M^−1·s^−1 and 13,131.0 ± 207. Regarding Mca-RVALQ↓XAHYK(Dnp)RR [QFS1-G1'], the kcat/KM was 4,515.7 M^−1·s^−1 and 4,515.7 ± 248.

Values taken from PMC11237654, “Optimization of quenched fluorescent peptide substrates of SARS-CoV-2 3CL^pro main protease (Mpro) from proteomic identification of P6—P6' active site specificity” (Journal of Virology, 2024).
